The nature of assay [1]: Inhibitory concentration against alpha-L-Fucosidase of human placenta.
A short description of assay [2]: In vitro inhibition of alpha-L-fucosidase isolated from bovine kidney.
The target of assay [3] is alpha-L-fucosidase (Bacillus sp. K40T). In words: Inhibitory activity against alpha-L-fucosidase of bacillus species (K40T) expressed as Ki.
A short description of assay [4]: Inhibitory concentration against alpha-L-Fucosidase of bovine epididymis.
Assay [5] is described as follows: Inhibitory activity against alpha-L-Fucosidase of bovine epididymis expressed as Ki.
Assay [6] can be described thus: Inhibitory activity against alpha-L-fucosidase of bovine epididymis expressed as Ki.

Where a name gives a salt, the structure may show the parent alone.

Usually Ki stands for a dissociation constant, usually derived from enzyme kinetics or from competition with a known ligand. For `CC1N=C(NN)[C@@H](O)[C@H](O)C1O` (stereo partly drawn) [(4R,5R)-6-Hydrazino-2-methyl-2,3,4,5-tetrahydro-pyridine-3,4,5-triol], in assay [1], the Ki is 0.82 µM. Same read-out and setting: the same measure for `CC1CN[C@@H](N)[C@H](O)C1O` (stereo partly drawn) [(2R,3S)-2-Amino-5-methyl-piperidine-3,4-diol]: 0.016 µM.

In assay [1], `C[C@@H]1N[C@@H](CO)[C@H](O)[C@@H]1O` showed a Ki of 1.4 µM. Turning to `CCCCNC1N[C@@H](CO)C(O)[C@@H](O)[C@@H](CO)N1` (stereo partly drawn) [(6S,7R)-2-Butylamino-4,7-bis-hydroxymethyl-[1,3]diazepane-5,6-diol; trifluoroacetate], the affinity in assay [1], expressed as Ki, was 2.8 µM. Take `C=CCOC1OC(CO)C(O)C(O)[C@H]1OC1SC(C)C(O)[C@@H](O)C1O` (stereo partly drawn) [(R)-2-((R)-2-Allyloxy-4,5-dihydroxy-6-hydroxymethyl-tetrahydro-pyran-3-yloxy)-6-methyl-tetrahydro-thiopyran-3,4,5-triol]: the Ki in assay [2] came to 30 µM; in assay [3] it was 0.21 µM. `C[C@H]1N[C@H](CO)[C@H](O)[C@@H]1O` showed an inhibition constant (Ki) in assay [1] of 9 µM. In the case of `CC(=O)NCC1NCC(O)[C@@H](O)[C@@H]1O` (stereo partly drawn) [N-((3R,4R)-3,4,5-Trihydroxy-piperidin-2-ylmethyl)-acetamide], the affinity in assay [1], expressed as Ki, was 4 µM. Still for that read-out and setting: the value for `CC1C(N)C(O)[C@H](O)C1O` (stereo partly drawn) [(R)-4-Amino-5-methyl-cyclopentane-1,2,3-triol] was 15 µM. One may read the IC50 as the midpoint of a concentration-inhibition curve. The low end stands for inhibition by little substance, the high end for a need for much substance. Consider `COC(=O)c1cc(C2NCC(O)C2O)oc1C` (stereo unspecified) [5-(3,4-Dihydroxy-pyrrolidin-2-yl)-2-methyl-furan-3-carboxylic acid methyl ester], for which the IC50 in assay [4] worked out at 100 µM. Moreover, the affinity in assay [5], expressed as Ki, was 6.5 µM. In assay [1], `CC1SC(Sc2ccc([N+](=O)[O-])cc2)C(O)[C@H](O)C1O` (stereo partly drawn) [(R)-2-Methyl-6-(4-nitro-phenylsulfanyl)-tetrahydro-thiopyran-3,4,5-triol] registered a Ki of 3.3 µM. The compound `CC1NCC(O)C1O` (stereo unspecified) [2-Methyl-pyrrolidine-3,4-diol] had a Ki in assay [1] of 2 µM. Turning to `CC1C(NCc2ccccc2)C(O)[C@H](O)C1O` (stereo partly drawn) [(R)-4-Benzylamino-5-methyl-cyclopentane-1,2,3-triol], in assay [1], the affinity, expressed as Ki, was 0.68 µM. Compound `OC1CN(Cc2ccccc2)C[C@@H](O)C(O)C1O` (stereo partly drawn) [(R)-1-Benzyl-azepane-3,4,5,6-tetraol] gave a Ki in assay [6] of 23.4 µM.

`CC1NC(S(=O)(=O)O)C(O)C1O` (stereo unspecified) [3,4-Dihydroxy-5-methyl-pyrrolidine-2-sulfonic acid] yielded a Ki in assay [1] of 0.01 µM.

Source of the values: BindingDB's records for doi:10.1016/s0960-894x(01)00497-8 (Universidad De Sevilla, 2001).
